Assay results as given in article PMC5458179, “Oxidative DNA double strand breaks and autophagy in the antitumor effect of sterically hindered platinum(II) complexes in NSCLCs” (Oncotarget, 2017).

Legend:
Assay type in all cases: cell-based, human
[1] = system: caspase-3; assay: Caspase-3 activation analysis; details: A549 and NCI-H1299, 10 μM, 24 h
Experimental: For the quantification of activation of caspase-3 in cancer cells, 5 × 10^5 cancer cells were seeded in a 60 mm dish and allowed to adhere for 1 day. […] As a reference control, the cells were only incubated with fresh media at 37°C. Then, the cells were washed with PBS to eliminate the remaining drugs and harvested using trypsin-EDTA. All the groups of cells were collected into microtubes following incubation with […] media containing […] of FITC-DEVD-FMK (Caspase 3(active) FITC Staining Kit (ab65613)) for 1 h at 37°C under 5% CO2. Subsequently, centrifugation of the cells was performed to collect cell pellets and washed 2 times with washing buffer. Each group of cells was resuspended with […] of the washing buffer and transferred […] per well in a microtiter plate reader. The quantification of caspase-3 was evaluated as Relative Fluorescence Unit(RFU) using Fluorophotometer (Max Gemini EM, SoftMax® Pro 5, Molecular Devices Corp., Sunnyvale, CA) at an emission wavelength of 535 nm after excitation at 485 nm. The statistical significance was evaluated with one-way ANOVA test using Graph Pad Prism 4 software.

[2] = system: A549 cells; assay: Quantification of apoptotic cells (annexin V/PI flow cytometry)
Experimental: (§1) The role of complex 3-induced autophagy in cell death was further analyzed (Figure 6). When A549 cancer cells were treated with complex 3 of 10 μM, the protein expression of LC3-II was increased (Figure 6A). […] Treatment with complex 3 for 24 h caused a 4.5-folds increase in cells undergoing autophagy (Figure 6C). […] Moreover, Bax and Bcl-2 expressions were measured by western blot analysis of whole cell lysates.
To investigate the role of ROS in complex 3-induced cell death, the level of intracellular H2O2 was measured. […] Exposure of A549 cells to NAC reduced levels of LC3-II from 2.3- to 1.5-folds (Figure 8B). […] In parallel, the complex 3-induced increase ratio of Bax/Bcl-2 was suppressed by NAC (Figure 8E).
The mode of cell death was analyzed by flow cytometry with annexin V/propidium iodide (PI) double-staining to detect membrane events according to a previous study. After individual treatments, whole cells were collected in 4-(2-hydroxyethyl)-1-piperazineethanesulfonic acid (HEPES) buffer containing 10 mM HEPES (pH 7.4), 140 mM NaCl, and 2.5 mM CaCl2. Cells were subsequently stained with annexin V (2.5 μg/ml) and PI (2 ng/ml) for 20 min, followed by analysis by flow cytometry (Beckman Coulter). Cystograms of the four quadrants in the figure were used to distinguish normal (annexin V^−/PI^−), early apoptotic (annexin V^+/PI^−), late apoptotic(annexin V^+/PI^+), and necrotic cells (annexin V^−/PI^+). The sum of early apoptosis and late apoptosis is presented as total apoptosis.

[3] = system: A549 and NCI-H1299 cancer cells; assay: H2O2 measurement (Amplex Red); details: A549 and NCI-H1299, 10 μM, 2 h
Experimental: As excessive ROS generation is associated with cell-killing activity, we further examined whether complex 3 could also induce the formation of excessive ROS in A549 and NCI-H1299 cancer cells.
The production of H2O2 was determined with the Amplex® Red reagent (10-acetyl-3,7-dihydroxyphenoxazine; Molecular Probes). In the presence of horseradish peroxidase (HPR), the Amplex® Red reagent reacts in a 1:1 stoichiometry to produce the red-fluorescent oxidation product, resorufin. Consequently, resorufin generation allows the detection of the H2O2 released from biological compounds. […] Resorufin generation was measured over time using a fluorometer (Fluostar BMG Labtech) at 544 nm excitation and 590 nm emission.

[4] = system: A549 cancer cells; assay: Intracellular ATP production; details: A549, 10 μM, 12 h
Experimental: (§2) Since ATP production is a significant consequence attributed to the dysfunction of mitochondrial energy production, we measured intracellular ATP levels after complex 3 treatment.
(§3) The ATP production assay kit (Haimen, Jiangsu, China) was used to measure intracellular ATP level according to the manufacturer's instructions. […] Detection was performed using the luminometer Orion II (Berthold DS, Bleichstr, Pforzheim, Germany).

[5] = system: NCI-H1299 cancer cells; assay: Intracellular ATP production; details: NCI-H1299, 10 μM, 12 h
Experimental: as §2, §3

[6] = system: MDC1/Aprataxin; assay: Immunostaining of DSB repair proteins; details: A549, 10 μM, 24 h
Text: The serine 139-phosphorylated form of chromatin-associated histone H2AX, namely γ-H2AX, is a key marker of cellular response to DDR, particularly DSBs. […] Obviously, pre-treatment of NAC could considerably alleviate the DDR triggered by complex 3 (Figure 5B). Therefore, we came to a conclusion that complex 3 caused DDR especially DSBs in A549 cells, which might happen after the increased level of intracellular ROS. In order to reveal the mechanisms underlying the enhanced DNA damage, complex 3 was studied to learn whether it could reduce the activation of DNA repair response including the co-localization of DSB repair protein MDC1/Aprataxin within nucleus. […] In order to reveal the mechanisms underlying DNA damage, complex 3 was studied to detect whether it could suppress the activation of DNA single strand break repair via the phosphorylation of SSB repair mediator/adaptor proteins XRCC1 within nucleus.
For assessment of DSBs repair kinetics we detected the total nuclear volume for an average of 50–60 nuclei per time points and cell type. Briefly, A549 cells were grown to confluence in 35 mm petri-dishes with 0.17 mm glass bottom. […] Non-specific binding was blocked by incubation with 5% FCS/PBS/0.1% Triton X-100 for 1 h at RT. […] Numbers of γH2AX foci were counted in 50–60 nuclei and plotted over time as previously described.

[7] = system: Bax and Bcl-2; assay: Western blot of Bax and Bcl-2; details: A549, 10 μM, 24 h, whole cell lysates
Experimental: as §1
Lysates were centrifuged at 12,000 g for 0.5 h at 4°C. The concentrations of total proteins were measured using the BCA assay method with Varioskan spectrofluorometer and spectrophotometer (Thermo, Waltham, MA) at 562 nm. Protein (20–100 μg) prepared from the indicated cells was loaded per lane and electrophoresed in 8% or 10% sodium dodecyl sulfate polyacrylamide gel electrophoresis (SDS-PAGE), and then transferred onto polyvinylidene difluoride (PVDF) Immobilon-P membrane (Bio-Rad, USA) using a transblot apparatus (Bio-Rad, USA). The membranes were blocked with 5% (w/v) non-fat milk at 0.5 h at 37°C, followed by overnight incubation at 4°C with primary antibodies diluted in PBST. After washing with PBST, the membranes were incubated for 1 h with an IRDye´800 conjugated secondary antibody diluted 1:20000 in PBST, and the labeled proteins were detected with an Odyssey Scanning System (Li-COR., Lincoln, Nebraska, USA).

With `CC(C)C[NH+]1[C@@H]2CCCC[C@H]2[NH+](CC(C)C)[Pt-2]12[O]C(=O)CC(=O)[O]2` (some centres unmarked) [Complex 3] the caspase-3 activity [1] was “high degree of caspase-3 activity compared to oxaliplatin”, the percentage of apoptosis ([2]; A549, 10 μM complex 18 h, without NAC) was 52.5% and the percentage of apoptosis ([2]; A549, 5 mM NAC 2 h pretreatment then 10 μM complex 18 h) was 34.2%. The “production of H2O2” value [3] was “significantly higher”, the “ATP level, % of untreated cells” value [4] was 19.95% and the “ATP level, % of untreated cells” value [5] was 31.89%. For the same compound, the “co-localization of MDC1/Aprataxin to the damaged DNA” value [6] was “dramatically decrease in the co-localization of MDC1/Aprataxin” and the “Bax and Bcl-2 protein levels” value [7] was “Incremental changes in pro-apoptotic Bax and decreased changes anti-apoptotic Bcl-2 protein levels”.
